“And” between values parts separate entries of the source, which are not always exact repeats. Identical values can stand only once.
Assays:
[1] = test system: Staphylococcus aureus ATCC 24213; settings: Gram positive reference strain
[2] = in vitro; type: cell-based; settings: human; Table 4; tryphan blue exclusion assay for MT2 cells; read-out: Cytotoxicity
Method in brief: (§1)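 MT2 or cMAGI reporter cells infected with wild-type or resistant HIV-1 at 0.2-0.5 MOI for 4 days at 37° C with varying pAAC concentrations. Infection scored by counting blue-stained cMAGI cells and by microscopic syncytium assessment in MT2; cytotoxicity by trypan blue exclusion, as % dead cells.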

[3] = molecular target: T1, CXCR4 (Homo sapiens, UniProt P61073); assay: Competition with 12G5 mAb binding to CXCR4 on MT2 cells (flow cytometry)
T1 construct: incubated at 4° C. with anti-CXCR4 mAb, 12G5, conjugated to phycoerithrine (PE); endogenous in cells; host or cells: MT2 cells
T1 sequence (P61073 whole entry): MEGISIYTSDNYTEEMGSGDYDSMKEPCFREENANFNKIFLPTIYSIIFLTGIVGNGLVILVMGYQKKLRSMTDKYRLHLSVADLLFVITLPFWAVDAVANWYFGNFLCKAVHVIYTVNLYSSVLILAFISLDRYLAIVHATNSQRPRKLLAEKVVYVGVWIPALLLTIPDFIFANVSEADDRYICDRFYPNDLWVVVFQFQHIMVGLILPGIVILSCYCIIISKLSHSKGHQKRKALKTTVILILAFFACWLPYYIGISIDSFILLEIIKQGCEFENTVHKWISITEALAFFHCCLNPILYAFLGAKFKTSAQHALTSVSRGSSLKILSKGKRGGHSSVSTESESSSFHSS
Method in brief: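 MT2 cells (0.5×10^6) were incubated for 30 min at 4 °C with PE-conjugated 12G5 anti-CXCR4 mAb, alone or with varying concentrations of pAACs or arginine peptides, in ice-cold PBS/0.1% azide. Cells were then fixed in 1% paraformaldehyde and analysed by flow cytometry (10,000 events), with an isotype control defining non-specific fluorescence.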

[4] = test system: Enterobacter aerogenes; settings: Gram negative clinical isolate
[5] = test system: S. aureus MRSA; settings: Gram positive clinical isolate
[6] = test system: Enterococcus faecalis (clinical isolate); settings: Gram positive clinical isolate
[7] = test system: Enterococcus faecalis ATCC 29212; settings: Gram positive reference strain
[8] = test system: Klebsiella pneumoniae ATCC 13883; settings: Gram negative reference strain
[9] = test system: Enterobacter cloacae W25161; assay: microbe, parasite or virus in culture; settings: W25161, read-out: Minimum Inhibitory Concentration
[10] = test system: Strep. Pyogenes (gr. A); assay: MIC, broth microdilution; type: cell-based; settings: Streptococcus pyogenes; Gram positive clinical isolate; read-out: Minimum Inhibitory Concentration
[11] = test system: Enterobacter cloacae; assay: microbe, parasite or virus in culture; settings: read-out: Minimum Inhibitory Concentration
[12] = test system: K. pneumoniae-ESBL positive; assay: microbe, parasite or virus in culture; settings: Klebsiella pneumoniae, read-out: Minimum Inhibitory Concentration
[13] = test system: P. aeruginosa-gentamicin^r, meropenem^r; assay: microbe, parasite or virus in culture; settings: Pseudomonas aeruginosa, read-out: Minimum Inhibitory Concentration
[14] = test system: A. baumannii-amikacin^r, meropenem^r; assay: microbe, parasite or virus in culture; settings: Acinetobacter baumannii, read-out: Minimum Inhibitory Concentration
[15] = test system: MT2 cells; assay: in vitro; type: cell-based; settings: human
Method in brief: as §1

[16] = test system: S. epidermidis B32954; assay: MIC, broth microdilution; type: cell-based, Staphylococcus epidermidis; settings: Staphylococcus epidermidis, B32954; Gram positive clinical isolate; read-out: Minimum Inhibitory Concentration
[17] = test system: Serratia marcescens; assay: microbe, parasite or virus in culture; settings: read-out: Minimum Inhibitory Concentration
[18] = test system: E. Coli-ESBL negative; assay: microbe, parasite or virus in culture; settings: Escherichia coli, read-out: Minimum Inhibitory Concentration
[19] = test system: E. Coli-ESBL positive; assay: microbe, parasite or virus in culture; settings: Escherichia coli, read-out: Minimum Inhibitory Concentration
[20] = test system: Klebsiella pneumoniae ATCC 13883; assay: microbe, parasite or virus in culture; settings: ATCC13883, read-out: Minimum Inhibitory Concentration
[21] = test system: K. pneumoniae-ESBL negative; assay: microbe, parasite or virus in culture; settings: Klebsiella pneumoniae, read-out: Minimum Inhibitory Concentration
[22] = test system: Proteus mirabilis ATCC 7002; assay: microbe, parasite or virus in culture; settings: ATCC7002, read-out: Minimum Inhibitory Concentration
[23] = test system: S. epidermidis MRSE; assay: microbe, parasite or virus in culture; settings: Staphylococcus epidermidis, read-out: Minimum Inhibitory Concentration
[24] = test system: K. pneumoniae B2511; assay: MIC, broth microdilution; type: cell-based; settings: Klebsiella pneumoniae, Gram negative clinical isolate, read-out: Minimum Inhibitory Concentration
[25] = test system: A. baumannii R16998; assay: microbe, parasite or virus in culture; settings: Acinetobacter baumannii, R16998, read-out: Minimum Inhibitory Concentration
[26] = test system: Enterococcus faecalis (clinical isolate); assay: microbe, parasite or virus in culture; settings: read-out: Minimum Inhibitory Concentration

CC(=O)N[C@H](CCCNC(=N)N)C(=O)N[C@H](CCCNC(=N)N)C(=O)N[C@H](CCCNC(=N)N)C(=O)N[C@H](CCCNC(=N)N)C(=O)N[C@H](CCCNC(=N)N)C(=O)N[C@H](CCCNC(=N)N)C(=O)N[C@H](CCCNC(=N)N)C(=O)N[C@H](CCCNC(=N)N)C(=O)N[C@H](CCCNC(=N)N)C(=O)O [Compound 12, D-Arg-9-mer-NHAc]
Minimum Inhibitory Concentration [1]: 128.0 mg/liter and 63.82 μM
CC50 [2]: 150 µM
inhibition at 2 µM ([3]; 2 μM, read-out: % Inhibition of 12G5 mAb binding to CXCR4): 81.3%
inhibition at 10 µM ([3]; 10 μM, read-out: % Inhibition of 12G5 mAb binding to CXCR4): 99.6%
Minimum Inhibitory Concentration [4]: 128.0 mg/liter and 63.82 μM
Minimum Inhibitory Concentration [5]: > 128.0 mg/liter and 63.82 μM
Minimum Inhibitory Concentration [6]: 128.0 mg/liter and 63.82 μM
Minimum Inhibitory Concentration [7]: 64.0 mg/liter and 31.91 μM
Minimum Inhibitory Concentration [8]: 96.0 mg/liter and 47.86 μM

NCC1OC(OC2C(CO)OC(OC3C(O)C(N)CC(N)C3OC3OC(CN)C(O)C(O)C3N)C2O)C(N)C(O)C1O (centres unmarked) [Neomycin]
MIC [9]: 3 µg/mL and 3.3 µM
MIC [10]: 16 µg/mL and 17.6 µM
MIC [11]: 4 µg/mL and 4.4 µM
MIC [12]: 1.5 µg/mL and 1.65 µM
MIC [13]: 128 µg/mL and 141 µM
MIC [14]: 106 µM and 96 µg/mL
Cytotoxicity [15]: >300 µM
MIC [16]: 0.5 µg/mL and 0.55 µM
MIC [17]: 1 µg/mL and 1.1 µM
MIC [18]: 1 µg/mL and 1.1 µM
MIC [19]: 4 µg/mL and 4.4 µM
MIC [20]: 0.7 µg/mL and 0.77 µM
MIC [21]: 0.7 µg/mL and 0.77 µM
MIC [22]: 1.5 µg/mL and 1.65 µM
MIC [23]: 0.5 µg/mL and 0.55 µM
MIC [24]: 1.5 µg/mL and 1.65 µM
MIC [25]: 32 µg/mL and 35.2 µM
MIC [26]: 128 µg/mL and 141 µM

D-Arg-9-mer-neomycin [Compound 14]
Minimum Inhibitory Concentration [1]: 32.0 mg/liter and 11.02 μM
% Inhibition of 12G5 mAb binding to CXCR4 ([3]; 2 μM): 95.3%
% Inhibition of 12G5 mAb binding to CXCR4 ([3]; 10 μM): 100%
Minimum Inhibitory Concentration [4]: 32.0 mg/liter and 11.02 μM
Minimum Inhibitory Concentration [5]: 32.0 mg/liter and 11.02 μM
Minimum Inhibitory Concentration [6]: 64.0 mg/liter and 22.05 μM
Minimum Inhibitory Concentration [7]: 128.0 mg/liter and 44.11 μM
Minimum Inhibitory Concentration [8]: 12.0 mg/liter and 4.14 μM

From US20060166867A1, “Novel conjugates of polysaccharides and uses thereof” (priority 2003, published 2006)
